Common to all, as to type: cell-based
Test [1] addresses T1, Oxysterols receptor LXR-alpha (Homo sapiens) (UniProt Q13133).
T1 sequence (whole entry): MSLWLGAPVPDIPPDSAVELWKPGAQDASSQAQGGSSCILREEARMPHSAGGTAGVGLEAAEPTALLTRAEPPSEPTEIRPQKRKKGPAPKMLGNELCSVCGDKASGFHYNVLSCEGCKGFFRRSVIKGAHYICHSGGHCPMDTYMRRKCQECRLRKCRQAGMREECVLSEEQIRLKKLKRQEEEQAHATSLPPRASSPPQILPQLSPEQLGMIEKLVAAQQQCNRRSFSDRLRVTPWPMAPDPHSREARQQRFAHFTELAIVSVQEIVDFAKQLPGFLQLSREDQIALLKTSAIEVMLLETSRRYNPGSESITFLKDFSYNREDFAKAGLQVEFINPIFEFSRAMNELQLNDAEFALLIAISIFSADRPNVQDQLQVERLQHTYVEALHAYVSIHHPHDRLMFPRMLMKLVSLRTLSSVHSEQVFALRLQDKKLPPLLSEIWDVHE
As to the kind of experiment: Agonist activity at LXR-alpha (unknown origin) expressed in HEK293 cells assessed as transcriptional activation at 1 to 25 uM after 40 hrs by luciferase reporter gene assay.

For test [2], the target named is T2, Retinoic acid receptor alpha (Homo sapiens) (UniProt P10276).
T2 sequence (whole entry): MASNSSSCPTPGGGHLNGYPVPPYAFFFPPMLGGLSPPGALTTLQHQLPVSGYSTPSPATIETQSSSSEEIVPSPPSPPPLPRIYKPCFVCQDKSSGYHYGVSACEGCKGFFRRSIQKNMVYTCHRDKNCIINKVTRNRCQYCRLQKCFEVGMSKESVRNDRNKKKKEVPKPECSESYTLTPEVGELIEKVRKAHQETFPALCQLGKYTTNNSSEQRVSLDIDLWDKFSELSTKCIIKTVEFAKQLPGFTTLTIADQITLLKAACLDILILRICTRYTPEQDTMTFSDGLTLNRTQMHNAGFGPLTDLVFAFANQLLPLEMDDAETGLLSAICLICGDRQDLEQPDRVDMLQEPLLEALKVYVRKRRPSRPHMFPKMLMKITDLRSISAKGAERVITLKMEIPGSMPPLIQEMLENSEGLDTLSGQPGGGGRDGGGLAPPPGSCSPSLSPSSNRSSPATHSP
The experiment in a line: Agonist activity at human RARalpha expressed in HEK293 cells assessed as transcriptional activation at 0.1 to 50 uM after 40 hrs by luciferase reporter gene assay. In general terms: A reporter such as luciferase makes a cellular process visible.

Test [3] has as its system F9. As to the kind of experiment: Activation of RAR in mouse F9 cells assessed as increase in CYP26A1 mRNA level at 10 uM after 48 hrs by RT-PCR analysis in presence of RAR antagonist BMS493.
Test [4] concerns the target T3, Retinoic acid receptor (Homo sapiens) (UniProt P13631+P10826+P10276). The experiment in a line: Induction of RAR-mediated differentiation of human HL60 cells at 1 to 25 uM after 4 days by NBT assay. To be noted: HL-60.
For test [5], the target named is T2, Retinoic acid receptor alpha (Homo sapiens). As to the kind of experiment: Agonist activity at human RARalpha expressed in HEK293 cells assessed as transcriptional activation at 1 to 100 uM after 40 hrs by luciferase reporter gene assay.
For test [6] the target is unchanged. The experiment in a line: Agonist activity at human RARalpha expressed in HEK293 cells assessed as transcriptional activation at 1 to 100 uM after 40 hrs by luciferase reporter gene assay in presence of RAR antagonist LE135.
For test [7], the target named is T4, Peroxisome proliferator-activated receptor gamma (Homo sapiens) (UniProt P37231).
T4 sequence (whole entry): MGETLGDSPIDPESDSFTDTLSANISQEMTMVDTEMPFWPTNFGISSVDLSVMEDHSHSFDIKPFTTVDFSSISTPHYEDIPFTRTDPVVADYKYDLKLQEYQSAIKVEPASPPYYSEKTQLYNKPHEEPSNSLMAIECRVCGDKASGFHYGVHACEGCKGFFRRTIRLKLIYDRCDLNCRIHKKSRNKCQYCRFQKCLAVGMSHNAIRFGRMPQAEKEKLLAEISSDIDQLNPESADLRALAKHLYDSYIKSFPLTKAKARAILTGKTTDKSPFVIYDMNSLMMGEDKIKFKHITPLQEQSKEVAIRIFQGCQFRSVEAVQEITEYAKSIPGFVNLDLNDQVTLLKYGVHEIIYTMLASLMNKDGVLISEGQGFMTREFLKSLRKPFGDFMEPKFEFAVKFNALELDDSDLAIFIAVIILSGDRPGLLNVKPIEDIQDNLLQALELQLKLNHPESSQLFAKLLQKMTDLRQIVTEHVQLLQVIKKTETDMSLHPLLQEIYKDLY
As to the kind of experiment: Agonist activity at PPARgamma (unknown origin) expressed in HEK293 cells assessed as transcriptional activation at 1 to 25 uM after 40 hrs by luciferase reporter gene assay.

Test [8] concerns F9. As to the kind of experiment: Activation of RAR in mouse F9 cells assessed as increase in CYP26A1 mRNA level at 10 uM after 48 hrs by RT-PCR analysis.
For test [9], the target named is T5, Retinoic acid receptor RXR-alpha (Homo sapiens) (UniProt P19793).
T5 sequence (whole entry): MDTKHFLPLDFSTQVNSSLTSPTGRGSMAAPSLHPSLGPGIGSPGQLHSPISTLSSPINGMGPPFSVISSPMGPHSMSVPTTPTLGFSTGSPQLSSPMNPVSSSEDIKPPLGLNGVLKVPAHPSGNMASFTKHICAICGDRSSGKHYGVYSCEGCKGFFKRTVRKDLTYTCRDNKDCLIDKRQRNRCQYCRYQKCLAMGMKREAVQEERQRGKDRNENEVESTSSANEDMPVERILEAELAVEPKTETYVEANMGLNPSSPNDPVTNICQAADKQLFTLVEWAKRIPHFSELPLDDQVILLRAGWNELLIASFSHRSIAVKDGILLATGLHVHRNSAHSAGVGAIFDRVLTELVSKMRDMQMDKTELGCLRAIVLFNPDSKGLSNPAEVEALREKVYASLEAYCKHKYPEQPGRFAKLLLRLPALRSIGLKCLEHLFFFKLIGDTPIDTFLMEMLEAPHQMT
The experiment in a line: Agonist activity at human RXRalpha expressed in HEK293 cells assessed as transcriptional activation up to 100 uM after 40 hrs by luciferase reporter gene assay.

Test [10] concerns the target T6, Peroxisome proliferator-activated receptor delta (Homo sapiens) (UniProt Q03181).
T6 sequence (whole entry): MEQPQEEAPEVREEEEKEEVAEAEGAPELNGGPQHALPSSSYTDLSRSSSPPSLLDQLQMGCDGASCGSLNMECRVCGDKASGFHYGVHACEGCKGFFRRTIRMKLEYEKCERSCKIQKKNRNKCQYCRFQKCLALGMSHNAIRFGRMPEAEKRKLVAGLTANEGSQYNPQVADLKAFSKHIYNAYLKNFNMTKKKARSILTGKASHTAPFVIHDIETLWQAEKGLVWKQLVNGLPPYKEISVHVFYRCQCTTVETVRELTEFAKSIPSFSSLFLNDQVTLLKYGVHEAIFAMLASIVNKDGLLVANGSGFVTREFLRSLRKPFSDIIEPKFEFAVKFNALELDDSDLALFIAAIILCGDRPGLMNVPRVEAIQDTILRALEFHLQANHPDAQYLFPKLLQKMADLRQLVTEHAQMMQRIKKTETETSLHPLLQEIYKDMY
The experiment in a line: Agonist activity at PPARdelta (unknown origin) expressed in HEK293 cells assessed as transcriptional activation at 1 to 25 uM after 40 hrs by luciferase reporter gene assay.

Test [11] has as its target T3, Retinoic acid receptor (Homo sapiens). The experiment in a line: Activation of RAR in human HepG2 cells assessed as increase in CAR mRNA level at 10 uM after 24 hrs by RT-PCR analysis.
Test [12] deals with F9. The experiment in a line: Activation of RAR in mouse F9 cells assessed as increase in CYP26A1 mRNA level at 0.01 uM after 48 hrs by RT-PCR analysis.
Test [13] addresses T3, Retinoic acid receptor (Homo sapiens). As to the kind of experiment: Induction of RAR-mediated differentiation of human HL60 cells at 1 uM after 4 days by NBT assay. To be noted: HL-60.

Structures are written as SMILES. Calls of active or inactive are those of the source. The calls are words filed in the database; no cut-off is given here.

T3 sequence (P10826 whole entry, looked up, one chain of several): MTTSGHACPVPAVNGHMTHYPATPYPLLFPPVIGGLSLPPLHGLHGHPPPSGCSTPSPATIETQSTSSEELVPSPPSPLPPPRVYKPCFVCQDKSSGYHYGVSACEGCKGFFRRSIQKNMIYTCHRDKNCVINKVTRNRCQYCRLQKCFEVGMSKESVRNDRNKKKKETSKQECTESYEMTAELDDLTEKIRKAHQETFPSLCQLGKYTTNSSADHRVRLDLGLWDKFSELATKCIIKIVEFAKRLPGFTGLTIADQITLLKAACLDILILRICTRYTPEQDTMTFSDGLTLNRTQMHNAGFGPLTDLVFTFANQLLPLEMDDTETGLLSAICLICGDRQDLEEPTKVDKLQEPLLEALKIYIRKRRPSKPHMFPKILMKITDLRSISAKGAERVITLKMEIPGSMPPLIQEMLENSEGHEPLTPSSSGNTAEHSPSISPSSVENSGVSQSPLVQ
T3 sequence (P13631 whole entry, looked up, one chain of several): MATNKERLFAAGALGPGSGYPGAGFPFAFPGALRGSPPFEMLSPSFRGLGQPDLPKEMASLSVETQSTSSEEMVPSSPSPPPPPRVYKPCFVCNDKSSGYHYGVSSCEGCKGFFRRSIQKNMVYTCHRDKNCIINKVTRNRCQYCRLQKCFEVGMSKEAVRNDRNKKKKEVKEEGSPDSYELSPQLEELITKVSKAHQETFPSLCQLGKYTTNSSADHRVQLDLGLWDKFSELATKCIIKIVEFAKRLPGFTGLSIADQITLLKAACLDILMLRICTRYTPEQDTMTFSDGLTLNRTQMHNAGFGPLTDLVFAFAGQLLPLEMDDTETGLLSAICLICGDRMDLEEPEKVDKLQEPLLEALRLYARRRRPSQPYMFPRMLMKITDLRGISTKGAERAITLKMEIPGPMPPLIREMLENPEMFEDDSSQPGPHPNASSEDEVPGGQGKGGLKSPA

Take `C=C[C@]1(C)C=C2CC[C@H]3[C@@](C)(CCC[C@@]3(C)C(=O)O)[C@@H]2CC1`: the outcome in [1], in test [3], in [6], in test [7], in [9] and in [10] was inactive. The result in test [11] was inactive. Also, the result in [2], in [4], in test [5] and in [8] was Active.
Regarding `CC1=C(/C=C/C(C)=C/C=C/C(C)=C/C(=O)O)C(C)(C)CCC1`, the outcome in test [12] and in test [13] was Active.
As to `COC(=O)[C@H](C)NC(=O)[C@]1(C)CCC[C@]2(C)c3ccc(C(C)C)cc3CC[C@@H]12`, in [2], the outcome was inactive.
Turning to `CC(C)C1=CC2=CC[C@@H]3[C@](C)(CCC[C@@]3(C)C(=O)O)[C@H]2CC1`, the outcome in test [1], in test [3] and in [10] was inactive. The result in [2], in [13], in test [7], in test [8] and in [11] was Active.
As to `C=C1C[C@@]23CC[C@H]4[C@@](C)(CCC[C@@]4(C)C(=O)O)[C@@H]2CC[C@]1(O)C3`, the outcome in test [2] was inactive.
As to `C=C[C@@]1(C)C=C2CC[C@@H]3[C@](C)(CCC[C@@]3(C)C(=O)O)[C@H]2CC1`, the outcome in [1], in test [3], in test [7] and in [10] was inactive. In addition, the outcome in test [2], in test [13], in [8] and in [11] was Active.

These data come from ChEMBL document CHEMBL3286315, “Retinoic acid receptor agonist activity of naturally occurring diterpenes” (Bioorg Med Chem, 2014).
